Measurements published in patent US10428060B2, “PI-kinase inhibitors with anti-infective activity” (The Board of Trustees of the Leland Stanford Junior …, priority 2011, dated 2019).

How the values were obtained:
[1] = target: T1, PI3K p110a (Homo sapiens, UniProt P42336); assay: PI3K p110a kinase assay; assay type: biochemical
T1 construct: purchased Millipore
Experimental: In the assays described here, p110α-p85 complex and p110γ were acquired from Millipore. Assays were performed with Lα-phosphatidylinositol (Avanti) as described in Knight et al. Nat Protoc. […] Inhibitor series were prepared 10% DMSO as 5× stocks for the assay. […] COS-7 cells were cultured in 10 cm dishes and transfected at 70% confluence with 10 μg of plasmid DNA (HA-tagged bovine PI4KIIIβ, HA-tagged human PI4KIIIα) using Lipofectamine 2000 and 5 ml Opti-MEM following the manufacturer's instructions. After 5 hours the transfection medium was replaced with 10 ml complete DMEM. 36 hrs post transfection, cells were washed once with 5 ml PBS (pH 7.4) and lysed in 1 ml of lysis buffer (1) on ice. […] To the lysates was added 200 μl of protein G Sepharose 4 fast flow beads that were prewashed with PBS and lysis buffer and 2 μg of anti-HA antibody. The tubes were then incubated overnight at 4 degrees C. in a tube rotator. […] Kinase reactions were run in a mixture of 45 μL of PI buffer (1 mM PI in kinase buffer), 10 μL of immunoprecipitated beads, 2 µL of inhibitors (dissolved and diluted in DMSO) or DMSO and 5 μL of [γ-^32P]-ATP (1 mM and 2 μCi/tube). […] Samples were counted in a scintillation beta counter after adding 5 ml of Instafluor (Perkin-Elmer). […]

[2] = target: T2, PI3KC2G (Homo sapiens, UniProt O75747); assay: PI3KC2G kinase assay; assay type: biochemical
T2 sequence (O75747 1-1486): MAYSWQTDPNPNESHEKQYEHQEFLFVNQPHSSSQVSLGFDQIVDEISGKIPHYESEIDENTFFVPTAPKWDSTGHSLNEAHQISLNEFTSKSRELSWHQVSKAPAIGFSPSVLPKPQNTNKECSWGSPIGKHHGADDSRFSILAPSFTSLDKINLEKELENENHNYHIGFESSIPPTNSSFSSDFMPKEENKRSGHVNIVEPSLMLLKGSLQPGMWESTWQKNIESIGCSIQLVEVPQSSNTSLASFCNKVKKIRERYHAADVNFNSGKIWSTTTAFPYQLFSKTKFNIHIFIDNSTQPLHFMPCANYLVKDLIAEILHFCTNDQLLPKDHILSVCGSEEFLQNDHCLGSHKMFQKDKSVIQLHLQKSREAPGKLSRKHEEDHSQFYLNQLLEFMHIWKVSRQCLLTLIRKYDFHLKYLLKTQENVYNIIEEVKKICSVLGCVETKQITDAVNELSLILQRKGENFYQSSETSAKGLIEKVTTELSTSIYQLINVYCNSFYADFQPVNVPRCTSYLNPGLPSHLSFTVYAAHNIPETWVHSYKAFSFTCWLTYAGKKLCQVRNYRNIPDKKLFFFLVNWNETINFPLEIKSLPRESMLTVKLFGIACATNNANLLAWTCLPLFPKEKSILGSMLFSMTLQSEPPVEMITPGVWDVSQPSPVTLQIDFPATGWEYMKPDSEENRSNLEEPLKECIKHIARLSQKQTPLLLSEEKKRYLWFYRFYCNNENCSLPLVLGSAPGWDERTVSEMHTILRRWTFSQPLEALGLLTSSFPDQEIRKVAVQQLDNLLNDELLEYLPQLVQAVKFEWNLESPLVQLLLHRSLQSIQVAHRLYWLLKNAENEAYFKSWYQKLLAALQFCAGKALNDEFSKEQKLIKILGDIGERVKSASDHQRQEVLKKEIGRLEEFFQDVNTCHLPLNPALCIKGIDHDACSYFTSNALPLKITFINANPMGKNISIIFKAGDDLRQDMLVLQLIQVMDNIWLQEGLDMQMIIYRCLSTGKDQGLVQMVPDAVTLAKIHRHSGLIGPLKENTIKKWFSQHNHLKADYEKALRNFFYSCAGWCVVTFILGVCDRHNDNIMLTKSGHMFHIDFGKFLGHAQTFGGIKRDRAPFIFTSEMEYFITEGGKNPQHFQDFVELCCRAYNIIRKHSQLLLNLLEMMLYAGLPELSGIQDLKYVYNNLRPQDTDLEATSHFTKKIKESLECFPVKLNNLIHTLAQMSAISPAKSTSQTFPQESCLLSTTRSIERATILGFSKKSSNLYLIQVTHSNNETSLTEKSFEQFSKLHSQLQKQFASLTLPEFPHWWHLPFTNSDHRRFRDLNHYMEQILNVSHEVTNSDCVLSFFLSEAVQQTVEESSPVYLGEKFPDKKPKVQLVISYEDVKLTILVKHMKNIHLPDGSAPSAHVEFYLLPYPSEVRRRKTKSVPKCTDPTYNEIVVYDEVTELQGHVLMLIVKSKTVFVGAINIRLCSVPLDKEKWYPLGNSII

T1 sequence (P42336 whole entry): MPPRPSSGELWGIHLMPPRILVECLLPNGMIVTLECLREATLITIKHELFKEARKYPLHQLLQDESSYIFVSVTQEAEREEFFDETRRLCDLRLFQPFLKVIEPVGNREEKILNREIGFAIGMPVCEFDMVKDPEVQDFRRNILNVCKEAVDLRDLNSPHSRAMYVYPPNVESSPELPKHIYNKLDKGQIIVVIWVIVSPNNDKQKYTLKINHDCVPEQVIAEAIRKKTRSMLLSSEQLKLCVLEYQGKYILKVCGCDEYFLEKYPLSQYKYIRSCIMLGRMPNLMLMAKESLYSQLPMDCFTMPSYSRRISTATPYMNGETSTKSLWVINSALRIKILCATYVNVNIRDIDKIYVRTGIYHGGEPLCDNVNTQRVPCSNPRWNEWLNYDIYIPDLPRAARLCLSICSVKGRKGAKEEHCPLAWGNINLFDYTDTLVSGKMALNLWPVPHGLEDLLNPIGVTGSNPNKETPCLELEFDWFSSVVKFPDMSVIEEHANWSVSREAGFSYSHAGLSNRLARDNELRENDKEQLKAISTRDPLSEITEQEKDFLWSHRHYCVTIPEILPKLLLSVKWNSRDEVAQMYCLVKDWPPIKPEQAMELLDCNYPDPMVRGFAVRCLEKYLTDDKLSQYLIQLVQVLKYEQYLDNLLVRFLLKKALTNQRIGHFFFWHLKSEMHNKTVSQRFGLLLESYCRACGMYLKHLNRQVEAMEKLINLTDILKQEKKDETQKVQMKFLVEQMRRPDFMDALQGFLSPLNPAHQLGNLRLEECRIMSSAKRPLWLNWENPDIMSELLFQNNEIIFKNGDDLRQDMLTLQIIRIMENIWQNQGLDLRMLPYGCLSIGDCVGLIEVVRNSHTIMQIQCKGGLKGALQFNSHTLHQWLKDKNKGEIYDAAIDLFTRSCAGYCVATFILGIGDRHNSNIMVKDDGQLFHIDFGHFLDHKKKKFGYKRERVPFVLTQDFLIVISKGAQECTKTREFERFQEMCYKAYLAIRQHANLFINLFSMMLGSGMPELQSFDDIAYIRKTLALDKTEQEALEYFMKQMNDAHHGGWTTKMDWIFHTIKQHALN
T1 sequence (P27986 whole entry partner): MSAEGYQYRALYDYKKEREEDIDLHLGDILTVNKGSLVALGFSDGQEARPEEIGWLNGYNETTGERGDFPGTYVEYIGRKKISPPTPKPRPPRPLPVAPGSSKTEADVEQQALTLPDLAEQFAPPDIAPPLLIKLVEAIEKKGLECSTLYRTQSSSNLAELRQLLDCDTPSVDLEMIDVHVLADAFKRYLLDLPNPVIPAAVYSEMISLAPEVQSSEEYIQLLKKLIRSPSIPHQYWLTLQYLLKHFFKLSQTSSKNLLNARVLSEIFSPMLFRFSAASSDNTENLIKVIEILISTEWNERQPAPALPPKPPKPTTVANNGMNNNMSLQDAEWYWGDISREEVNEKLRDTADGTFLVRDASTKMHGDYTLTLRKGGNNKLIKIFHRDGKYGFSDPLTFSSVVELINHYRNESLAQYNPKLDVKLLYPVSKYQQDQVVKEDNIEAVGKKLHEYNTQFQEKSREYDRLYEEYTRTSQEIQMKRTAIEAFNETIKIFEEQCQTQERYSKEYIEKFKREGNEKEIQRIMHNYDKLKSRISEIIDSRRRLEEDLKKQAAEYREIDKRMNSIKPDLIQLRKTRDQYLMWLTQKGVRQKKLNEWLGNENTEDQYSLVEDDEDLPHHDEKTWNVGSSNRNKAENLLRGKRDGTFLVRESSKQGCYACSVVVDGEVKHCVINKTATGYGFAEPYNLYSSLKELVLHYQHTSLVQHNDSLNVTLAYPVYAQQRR

Compound: COc1ncc(-c2sc(NC(=O)CC3CCOCC3)nc2C)cc1S(=O)(=O)NC1CCCC(O)C1 (centres unmarked) [Compound S-263]
- IC50 [1]: 1 to 10 µM
- IC50 [2]: 100 to 1000 nM
